Among the data in US10144706B2 (BRISTOL-MYERS SQUIBB COMPANY, priority 2016, dated 2018) are IC50 values, retold here.

Broadly, the IC50 is the concentration that inhibits the measured activity by half.

For this test, the target named is T1, PD-1/PD-L1 interaction (PD-1-Ig / PD-L1-His) (Homo sapiens, UniProt Q9NZQ7).
T1 construct: hPDL1(18-239)-TVMV-His; TVMV protease site linker (C); made in house; host or cells: HEK293T
T1 sequence (Q9NZQ7 with tags, fused parts or gaps): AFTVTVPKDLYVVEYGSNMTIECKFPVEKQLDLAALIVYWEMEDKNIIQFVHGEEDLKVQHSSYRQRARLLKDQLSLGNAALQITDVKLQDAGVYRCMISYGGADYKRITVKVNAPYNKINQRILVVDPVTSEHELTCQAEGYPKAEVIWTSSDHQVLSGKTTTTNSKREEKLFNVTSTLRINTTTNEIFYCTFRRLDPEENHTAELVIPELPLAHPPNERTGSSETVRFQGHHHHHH
Put plainly: PD-1/PD-L1 Homogenous Time-Resolved Fluorescence (HTRF) binding assay. Conditions: IC50 range class; PD-L1-His 10 nM, PD-1-Ig 20 nM; read-out: Range or IC50. A digest of the protocol:
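HTRF detection used 1 nM europium-cryptate anti-Ig and 20 nM APC anti-His. Compounds first saw 10 nM PD-L1-His for 15 min, and 20 nM PD-1-Ig was then added for another 15 min. Buffer was dPBS plus 0.1% BSA and 0.05% Tween-20. All concentrations are final.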
As to `N#Cc1cncc(COc2cc(OCc3cccc(-c4cccc(COc5cc(OCc6cncc(C#N)c6)c(C(=O)NCCO)cc5Cl)c4Cl)c3Cl)c(Cl)cc2C(=O)NCCO)c1` [Example 80200], the IC50 fell in the range of 90.1 to 1000 nM.

In the case of `N#Cc1cncc(COc2cc(OCc3cccc(-c4cccc(COc5cc(OCc6cncc(C#N)c6)c(C(=O)N6CCSCC6)cc5Cl)c4Cl)c3Cl)c(Cl)cc2C(=O)N2CCSCC2)c1` [Example 80220], the IC50 lay in the range of 1000 to 10000 nM.

Turning to `Cc1c(COc2cc(OCc3cncc(C#N)c3)c(C(=O)N3CCC(=O)CC3)cc2Cl)cccc1-c1cccc(COc2cc(OCc3cncc(C#N)c3)c(C(=O)N3CCC(=O)CC3)cc2Cl)c1C` [Example 80230], the IC50 lay within 20.1 to 90 nM.

Take `N#Cc1cncc(COc2cc(OCc3cccc(-c4cccc(COc5cc(OCc6cncc(C#N)c6)c(C(=O)NCCO)cc5Cl)c4Cl)c3Cl)c(Cl)cc2C(=O)O)c1` [Example 90010]: the IC50 was in the range of 0.04 to 20 nM.

For the compound `N#Cc1cncc(COc2cc(OCc3cccc(-c4cccc(COc5cc(OCc6cncc(C#N)c6)c(C(=O)NC6CC6)cc5Cl)c4Cl)c3Cl)c(Cl)cc2C(=O)O)c1` [Example 90020], the IC50 was in the range of 20.1 to 90 nM.

For `N#Cc1cncc(COc2cc(OCc3cccc(-c4cccc(COc5cc(OCc6cncc(C#N)c6)c(C(=O)NCCCO)cc5Cl)c4Cl)c3Cl)c(Cl)cc2C(=O)O)c1` [Example 90030], the IC50 lay in the range of 20.1 to 90 nM.

`N#Cc1cncc(COc2cc(OCc3cccc(-c4cccc(COc5cc(OCc6cncc(C#N)c6)c(C(=O)NCC6(CO)CC6)cc5Cl)c4Cl)c3Cl)c(Cl)cc2C(=O)O)c1` [Example 90040]: the IC50 fell in the range of 90.1 to 1000 nM.

For the compound `N#Cc1cncc(COc2cc(OCc3cccc(-c4cccc(COc5cc(OCc6cncc(C#N)c6)c(C(=O)NC6COC6)cc5Cl)c4Cl)c3Cl)c(Cl)cc2C(=O)O)c1` [Example 90050], the IC50 is 90.1 to 1000 nM.

For the compound `N#Cc1cncc(COc2cc(OCc3cccc(-c4cccc(COc5cc(OCc6cncc(C#N)c6)c(C(=O)NCC6CCCO6)cc5Cl)c4Cl)c3Cl)c(Cl)cc2C(=O)O)c1` (stereo not drawn) [Example 90060], the IC50 was 1000 to 10000 nM.
